Reference: patent US20070286823A1, “COMPOSITIONS HAVING ANTI-DENTAL CARIES FUNCTION” (Ezaki Glico Co., Ltd., priority 2001, published 2007)

Legend:
[1] = remineralization test system using bovine tooth pieces (Example 3)
Description: The remineralization effect of a buffering agent may be examined by a known method, such as a remineralization test system using bovine tooth sections which is described in Inaba. D et al., Eur. J. Sci. 105:74-80, 1997; Inaba. D et al., J. Dent. Health. 47:67-74, 1997; and Iijima. Y et al., Dental Caries Research. 33:206-213, 1999.
This experiment was conducted basically in accordance with Inaba. D et al., Eur. J. Sci. 105:74-80, 1997; Inaba. D et al., J. Dent. Helth. 47:67-74, 1997; and Iijima. Y et al., Caries Research. 33:206-213, 1999.
Tooth pieces used in the experiment were prepared as follows: cubic bovine tooth pieces 3 mm per side were placed so that the enamel surfaces thereof are up. The pieces were covered with composite resin except for the enamel surfaces. The enamel was treated with wet abrasives and paper. Demineralization was conducted as follows: the tooth pieces were immersed in 1% lactate gel (pH 5.0) containing 6% carboxymethylcellulose gel at 37° C. for 3 weeks. Remineralization was conducted as follows: the tooth pieces subjected to demineralization were immersed in 20 mM 2-[4-(2-hydroxyethyl)]-1-piperidinylethane sulfonate (HEPES) buffer (pH 7.0) containing 1.5 mM CaCl2 and 0.9 mM KH2PO4 at 37° C. for one week.
After each treatment, a 200 μm-thick section was prepared from each treated tooth piece, and the mineral concentration distribution thereof was analyzed from the microradiographic images (not shown). […]
After each treatment, the calcium and phosphorus concentrations of the post-remineralization solution were also analyzed. The solution was centrifuged at 10,000 g for two minutes, and the supernatant was analyzed. The phosphorus concentration was determined by molybdic acid method (“Shin-ban Bunseki Kagaku Jikken [New Edition Analyical Chemistry Experiment] (1st ed.), pp. 313-314, published by Kagaku Dojin K. K.), and the calcium concentration was determined by OCPC method (manufactured by Wako Pure Chemicals: measured by a “calcium C test Wako” kit).

[2] = prior art; cited from earlier work
[3] = simple remineralization test system (hydroxyapatite, soluble calcium by OCPC method); conditions: for remineralization effect (FIG. 12): final concentration of 0.1%
Excerpt: These conditions for easy remineralization are simplified as follows: in a system including hydroxyapatite, calcium and phosphorus are supplied for crystallization and soluble calcium is reduced; and in a system including no hydroxyapatite, phosphorus and calcium are not deposited and the high solubility thereof is maintained. Therefore, the magnitudes of the solubility of calcium in the two systems were compared to examine the remineralization effect. These simple test systems will be described below. […] For this method, there are the following constraints: a long time required for evaluation; a high-level experimental technique required; etc. Therefore, there is a demand for a simple evaluation system capable of quickly capturing changes in dentin mineral concentrations. Remineralization in an early dental caries lesion in the enamel of teeth is considered to develop via the following two processes:
This method comprises the steps of: (A) precipitating calcium in a solution containing phosphorus, calcium, and tooth components in the presence of the sample; (B) measuring a calcium concentration in the solution or the amount of the precipitated calcium after the precipitation; (C) precipitating calcium in the solution in the absence of the sample; (D) measuring a calcium concentration in the solution or the amount of the precipitated calcium after the precipitation; and (E) comparing calcium concentrations or the amounts of the precipitated calcium in steps (B) and (D). In a preferred embodiment, the above-described solution may contain hydroxyapatite, a buffer, KH2PO4 and CaCl2. The “tooth component” to be contained in the above-described solution is any material that precipitates phosphorus and calcium to produce hydroxyapatite due to remineralization. Use of hydroxyapatite is preferable. Alternatively, teeth of mammals such as a bovine, and sections or fractions thereof may be used. When the solution for calcium precipitation is prepared, the sequence of addition of the above-described phosphorus, calcium, and the other tooth components is not limited. Preferably, first the sample, then, phosphorus, calcium chloride solution, and the tooth component suspension or deionized water are added in this order to prepare the solution. The pH of the solution is preferably adjusted after the addition of KH2PO4. Calcium precipitation typically occurs by incubation at room temperature for ten and several hours to several days (preferably 10 hours to 7 days, more preferably 18 hours to 42 hours). The calcium solubility of the solution can be measured by any procedure known to those skilled in the art. The calcium solubility of the solution may be measured by OCPC method (using calcium C test Wako manufactured by Wako Pure Chemicals). Alternatively, the amount of precipitated calcium in the solution can be measured. The amount of precipitated calcium in the solution may be measured by any procedure known to those skilled in the art. The calcium solubility of the solution may be measured by any procedure known to those skilled in the art. Examples of such a method include the ICP method (Inductive Coupled Plasma method), atomic absorption analysis and an ion electrode method.
In order to examine the remineralization phenomenon in a more simple manner, conditions under which remineralization occurs more easily were simplified. In a system including hydroxyapatite, calcium and phosphorus are supplied for crystallization and soluble calcium is reduced. In contrast, in a system including no hydroxyapatite, calcium and phosphorus are not precipitated so that the solubility thereof is held at a high level. Based on these facts, the following test system was designed.

[4] = as above; conditions: 37° C., 8 days
S. mutans strain 8148 = test: effect on fermentation of sucrose (pH of bacterial cell suspension); assay type: cell-based; conditions: 0.684% sugar added to 20% bacterial cell suspension; after 10 minutes
Description: S. mutans strain 8148 was incubated in 1,000 ml of brain heart infusion medium (manufactured by DIFCO Corporation) at 37° C. for 14 hours. Thereafter, the bacteria were collected by centrifugation at 6,000 rpm for 20 minutes. The bacteria was washed with phosphate buffered saline (PBS, pH 7.2), and suspended in the same PBS to 40% (v/v). To measure the pH, a reaction mixture (250 μl) was made of 125 μl of 40% bacterial cell suspension, 62.5 μl of 80 mM sucrose, and 62.5 μl of an aqueous solution containing various oligosaccharides (5% phosphorylated oligosaccharide sodium salt and phosphorylated oligosaccharide calcium salt). The pH of the reaction mixture was continuously measured with a pH meter (manufactured by Toa Denpa) while being incubated at 37° C.

[5] = remineralization solution + 2 ppm F, supernatant

With `F` [F, fluorine] the “lesion depth (FIG. 2)” value ([1]; demineralized bovine tooth pieces, remineralization solution + sample, 37° C., one week) was “the lesion depth was unchanged”, the “Ca (mM) of the post-remineralization solution” value [1, 5] was 0.73 mM and the “Pi (mM) of the post-remineralization solution” value [1, 5] was 0.41 mM. For the same compound, the “concentration at which sufficient efficacy is exerted (remineralization)” value [2] was “about 2 ppm”.

With `O=C[C@H](O)[C@@H](O)[C@H](O)[C@H](O)COP(=O)(O)O` [glucose-6-phosphate] the “remineralization effect (FIG. 12)” value [3] was “as good as or better than that of the phosphorylated oligosaccharide sodium salt”.

For `OC[C@H]1O[C@H](OC[C@H]2OC(O)(CO)[C@@H](O)[C@@H]2O)[C@H](O)[C@@H](O)[C@@H]1O` (stereo partly drawn) [palatinose, 6-O-α-D-Glucopyranosyl-D-Fructofuranose], the “sample concentration exhibiting a remineralization effect (FIGS. 7A to 7C)” value [4] was 20% and the “remineralization effect (FIG. 13)” value ([3]; 20% addition group) was “the remineralization effect as previously reported (as above) was confirmed”.

With `OC[C@@H](O)[C@@H](O)[C@H](O)[C@@H](O)CO` [sorbitol] the “remineralization effect (FIG. 13)” value ([3]; 20% addition group) was “the remineralization effect as previously reported (as above) was confirmed”.

In the case of `OC[C@H]1O[C@@](CO)(O[C@H]2O[C@H](CO)[C@@H](O)[C@H](O)[C@H]2O)[C@@H](O)[C@@H]1O` [sucrose], the “pH of the reaction liquid” value (S. mutans strain 8148) is reported as 4.0.

With `OC[C@@H](O)[C@H](O)[C@@H](O)CO` [xylitol] the “sample concentration exhibiting a remineralization effect (FIGS. 7A to 7C)” value [4] was 20%, the “remineralization effect (FIG. 13)” value ([3]; 20% addition group) was “the remineralization effect as previously reported (as above) was confirmed” and the “effect of xylitol (remineralization)” value ([3]; statement in the background referring to the Examples) was “not substantially confirmed”.

For `O=C[C@H](O)[C@@H](O)[C@H](O)CO` [xylose], the “remineralization percentage (FIG. 7B)” value ([3]; 37° C., 8 days) was “low at any concentration”.

With “chondroitin sulfate C [chondroitin sulfate C sodium salt]” the “remineralization effect (FIG. 12)” value [3] was “as good as or better than that of the phosphorylated oligosaccharide sodium salt”.

In the case of dermatan sulfate, the “remineralization effect (FIG. 13)” value ([3]; final concentration of 0.2%) is reported as “confirmed to have the remineralization effect”.

With palatinit the “sample concentration exhibiting a remineralization effect (FIGS. 7A to 7C)” value [4] was 20%.
